The record followed here is PMC12735951, “A Bioorthogonal TCO–Tetrazine-Based Pretargeted PET/NIRF Platform Enabling High-Contrast Tumor Imaging” (Pharmaceuticals, 2025).

A short description of data set [1]: Partition coefficient (log p), n-octanol/PBS. The data set is classed as physicochemical. As to the method:
(§1) ^68GaCl3 (5 mL, 20 mCi) and DOTA-Tz (50 μg) were mixed in a reaction vial. The pH was adjusted to 4.0–4.5 by adding 1 M sodium acetate, and the mixture was heated at 95 °C for 15 min without further purification. Radiochemical purity was confirmed by RP-HPLC. In vitro stability of ^68Ga-DOTA-Tz was assessed by incubating aliquots in 50% FBS or 50% PBS at 37 °C for 30 min, 1 h, 2 h, and 4 h. The partition coefficient (log p) was determined by mixing 1 mL of n-octanol with 1 mL of PBS containing the tracer, vortexing, and centrifuging at 3000 rpm for 5 min. Samples (0.1 mL) from both the organic and aqueous phases were withdrawn, and their radioactivity was measured using a γ-counter (PerkinElmer Wizard, Shelton, CT, USA).

A short description of data set [2]: In vitro stability in 50% fetal bovine serum (FBS). The data set is classed as in vitro ADME. As to the method:
as §1

Data set [3] in a line: In vitro stability in 50% PBS. The settings on record: 37 °C. The data set is classed as physicochemical. As to the method:
as §1

A further data set has as its system HeLa xenograft. The data set is described as follows: In vivo NIR fluorescence imaging, HeLa xenograft-bearing nude mice. Here is the method:
(§2) To evaluate the tumor-targeting characteristics of DZ-TCO derivatives, DZ-1-TCO, DZ-Lys-TCO, and DZ-Lys-PEG4-TCO were administered to HeLa and U87MG xenograft-bearing nude mice (100 μL of 50 μM, n = 3 per group). In vivo fluorescence imaging was conducted at 4, 24, 48, 72, and 96 h after TCO compound injection.
(§3) Female BALB/c nude mice (4–6 weeks old; 14–20 g), obtained from Beijing Vital River Laboratory Animal Technology Co., Ltd. (Beijing, China), were subcutaneously inoculated with 5 × 10^6 HeLa or U87MG cells suspended in 100 μL PBS into the right flank. Tumor growth was monitored every 2–3 days using digital calipers, and experiments were initiated when tumor volumes reached approximately 150–300 mm^3, calculated using the formula Volume = (length × width^2)/2.
(§4) To assess the tumor-targeting capability and clearance kinetics of DZ-TCO precursors, 100 µL of each compound ([…] in PBS) was administered intravenously via the tail vein. Whole-body fluorescence imaging was performed at predetermined time points (4, 24, 48, 72, and 96 h post-injection) using the IVIS Spectrum imaging system (PerkinElmer, Shelton, CT, USA) (excitation/emission, 745/820 nm) with automatic subtraction of background fluorescence during the acquisition. Fluorescence signals were acquired under standardized exposure settings, and region-of-interest (ROI) analysis was conducted using Living Image software version 4.4 (PerkinElmer) to quantify fluorescence intensity in the tumor and major organs.

For the next data set, the system named is U87MG xenograft. Briefly: In vivo NIR fluorescence imaging, U87MG xenograft-bearing nude mice. As to the method:
as §2, §3, §4

The next data set relates to HeLa and U87MG xenograft. The data set is described as follows: In vivo NIR fluorescence imaging, results not split by tumor model (organs, tumor-to-background ratios, retention). The settings on record: for time of peak tumor fluorescence signal / tumor fluorescence signal remained detectable (time post-injection): post-injection. On the set-up: species or system mice. As to the method:
as §2, §3
as §4, with “([…])” for “(4, 24, 48, 72, and 96 h post-injection)”

Each structure is given as a SMILES string.

On to `Cc1nnc(-c2ccc(OCCOCCOCCOCCNC(=O)CN3CCN(CC(=O)[O-])CCN(CC(=O)[O-])CCN(CC(=O)[O-])CC3)cc2)nn1.[68Ga+3]` [^68Ga-DOTA-Me-Tz], for which the log p in data set [1] was −2.87 ± 0.02. The “radiochemical purity in FBS at 4 h” value in data set [2] (50% FBS, 37 °C) worked out at 85.88 ± 7.55%. Also, the “radiochemical stability after 4 h” value in data set [2] (PBS and serum) was above 85%. For the same molecule, in data set [3], the “radiochemical purity in PBS after 4 h” value is on record as 94.48 ± 1.48%.
With `CC1(C)C(=CC=C2CCCC(C=CC3=[N+](CCCCS(=O)(=O)[O-])c4ccccc4C3(C)C)=C2Cl)N(CCCCCC(=O)NCCCNC(=O)OC2CCC=CCCC2)c2ccccc21` (stereo not shown) [DZ-1-TCO], the tumor fluorescence intensity is 6.38 × 10^9 p/s/cm^2/sr with HeLa xenograft (4 h post-injection); 6.93 × 10^9 p/s/cm^2/sr in the data set with HeLa xenograft (24 h post-injection); 5.57 × 10^9 p/s/cm^2/sr in the data set on HeLa xenograft (48 h post-injection); 5.44 × 10^9 p/s/cm^2/sr in the data set on U87MG xenograft (4 h post-injection); 6.12 × 10^9 p/s/cm^2/sr in the data set with U87MG xenograft (24 h post-injection); 4.82 × 10^9 p/s/cm^2/sr with U87MG xenograft (48 h post-injection). Also, the tumor-to-background fluorescence ratio turned out to be 695.00 ± 59.15 with HeLa and U87MG xenograft (4 h); 720.00 ± 64.21 with HeLa and U87MG xenograft (48 h). For the same molecule, the “time of peak tumor fluorescence signal” value with HeLa and U87MG xenograft is given as 24 h. Also, in the data set on HeLa and U87MG xenograft, the “tumor fluorescence signal remained detectable (time post-injection)” value was 72 h.
On to `CC1(C)C(=CC=C2CCCC(C=CC3=[N+](CCCCS(=O)(=O)[O-])c4ccccc4C3(C)C)=C2Cl)N(CCCCCC(=O)NCCCCC(N)C(=O)NCCOCCOCCOCCOCCNC(=O)OC2CCC=CCCC2)c2ccccc21` (stereo not shown) [DZ-Lys-PEG4-TCO], for which the tumor fluorescence intensity in the data set on HeLa xenograft (24 h post-injection) is given as 1.20 × 10^10 p/s/cm^2/sr. Moreover, the tumor-to-background fluorescence ratio with HeLa and U87MG xenograft (4 h) is recorded as 737.00 ± 159.93; with HeLa and U87MG xenograft (24 h), 1303.33 ± 116.76. Moreover, the “time of peak tumor fluorescence signal” value in the data set on HeLa and U87MG xenograft stood at 24 h. Besides, the “tumor fluorescence signal remained detectable (time post-injection)” value in the data set with HeLa and U87MG xenograft is 96 h.
As to `CC1(C)C(=CC=C2CCCC(C=CC3=[N+](CCCCS(=O)(=O)[O-])c4ccccc4C3(C)C)=C2Cl)N(CCCCCC(=O)NCCCCC(N)C(=O)NCCCNC(=O)OC2CCC=CCCC2)c2ccccc21` (stereo not shown) [DZ-Lys-TCO], the tumor fluorescence intensity with HeLa xenograft (4 h post-injection) is 2.19 × 10^9 p/s/cm^2/sr; in the data set with HeLa xenograft (24 h post-injection) it was 7.06 × 10^9 p/s/cm^2/sr; with HeLa xenograft (48 h post-injection), 5.43 × 10^9 p/s/cm^2/sr; in the data set with U87MG xenograft (4 h post-injection), 5.23 × 10^9 p/s/cm^2/sr; in the data set on U87MG xenograft (24 h post-injection), 7.18 × 10^9 p/s/cm^2/sr; in the data set with U87MG xenograft (48 h post-injection) it was 4.30 × 10^9 p/s/cm^2/sr. Besides, the tumor-to-background fluorescence ratio in the data set on HeLa and U87MG xenograft (4 h) was determined as 368.67 ± 151.28; in the data set with HeLa and U87MG xenograft (48 h) it was 4746.67 ± 100.66. Also, in the data set on HeLa and U87MG xenograft (48 h), the “fluorescence signal intensity, kidneys” value was 3.95 × 10^8 p/s/cm^2/sr. The “fluorescence signal intensity, liver” value with HeLa and U87MG xenograft (48 h) is recorded as 5.04 × 10^8 p/s/cm^2/sr; in the data set with HeLa and U87MG xenograft (96 h), 4.38 × 10^8 p/s/cm^2/sr. Besides, the “fluorescence signal intensity, lungs” value with HeLa and U87MG xenograft (48 h) was 2.02 × 10^8 p/s/cm^2/sr. The “fluorescence signal intensity, spleen” value with HeLa and U87MG xenograft (48 h) is given as 8.77 × 10^7 p/s/cm^2/sr. Further, the “fluorescence in normal tissues” value with HeLa and U87MG xenograft (168 h) is “nearly undetectable”. Moreover, the “tumor fluorescence signal remained detectable (time post-injection)” value in the data set with HeLa and U87MG xenograft is given as “up to 168 h”.
